Test results as given in the supplement of paper PMC11451515.

Test system: P12-Ichikawa
Assay: cell viability relative to DMSO control; higher = less cytotoxic
Settings: 48 h
Outline: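 Cells were incubated for 48 h at 37°C before CellTiter-Glo One luminescence was read. The cells were NOMO1 or SEM (500 cells/well) or P12-Ichikawa (1000 cells/well) leukemia cells, adapted for at least four passages in each medium and seeded in 1536-well plates (5 μl). Dosing used library compounds in DMSO applied by pin over 11 threefold points, 47 μM to 0.79 nM. Viability is the per-plate percentage of DMSO wells, with cell-free wells as background.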

[1] = HPLM + 10% dialyzed FBS, 0.000781 µM
[2] = HPLM + 10% dialyzed FBS, 0.00234 µM
[3] = HPLM + 10% dialyzed FBS, 0.00702 µM
[4] = HPLM + 10% dialyzed FBS, 0.0211 µM
[5] = HPLM + 10% dialyzed FBS, 0.0632 µM
[6] = HPLM + 10% dialyzed FBS, 0.19 µM
[7] = HPLM + 10% dialyzed FBS, 0.569 µM
[8] = HPLM + 10% dialyzed FBS, 1.71 µM
[9] = HPLM + 10% dialyzed FBS, 5.12 µM
[10] = HPLM + 10% dialyzed FBS, 15.4 µM
[11] = HPLM + 10% dialyzed FBS, 46.1 µM
[12] = RPMI 5 mM glucose + 10% FBS, 0.000781 µM
[13] = RPMI 5 mM glucose + 10% FBS, 0.00234 µM
[14] = RPMI 5 mM glucose + 10% FBS, 0.00702 µM
[15] = RPMI 5 mM glucose + 10% FBS, 0.0211 µM
[16] = RPMI 5 mM glucose + 10% FBS, 0.0632 µM
[17] = RPMI 5 mM glucose + 10% FBS, 0.19 µM
[18] = RPMI 5 mM glucose + 10% FBS, 0.569 µM
[19] = RPMI 5 mM glucose + 10% FBS, 1.71 µM
[20] = RPMI 5 mM glucose + 10% FBS, 5.12 µM
[21] = RPMI 5 mM glucose + 10% FBS, 15.4 µM
[22] = RPMI 5 mM glucose + 10% FBS, 46.1 µM
[23] = RPMI 5 mM glucose + 10% dialyzed FBS, 0.000781 µM
[24] = RPMI 5 mM glucose + 10% dialyzed FBS, 0.00234 µM
[25] = RPMI 5 mM glucose + 10% dialyzed FBS, 0.00702 µM
[26] = RPMI 5 mM glucose + 10% dialyzed FBS, 0.0211 µM
[27] = RPMI 5 mM glucose + 10% dialyzed FBS, 0.0632 µM
[28] = RPMI 5 mM glucose + 10% dialyzed FBS, 0.19 µM
[29] = RPMI 5 mM glucose + 10% dialyzed FBS, 0.569 µM
[30] = RPMI 5 mM glucose + 10% dialyzed FBS, 1.71 µM
[31] = RPMI 5 mM glucose + 10% dialyzed FBS, 5.12 µM
[32] = RPMI 5 mM glucose + 10% dialyzed FBS, 15.4 µM
[33] = RPMI 5 mM glucose + 10% dialyzed FBS, 46.1 µM

Row | SMILES | cell viability [1] [%] | cell viability [2] [%] | cell viability [3] [%] | cell viability [4] [%] | cell viability [5] [%] | cell viability [6] [%] | cell viability [7] [%] | cell viability [8] [%] | cell viability [9] [%] | cell viability [10] [%] | cell viability [11] [%] | cell viability [12] [%] | cell viability [13] [%] | cell viability [14] [%] | cell viability [15] [%] | cell viability [16] [%] | cell viability [17] [%] | cell viability [18] [%] | cell viability [19] [%] | cell viability [20] [%] | cell viability [21] [%] | cell viability [22] [%] | cell viability [23] [%] | cell viability [24] [%] | cell viability [25] [%] | cell viability [26] [%] | cell viability [27] [%] | cell viability [28] [%] | cell viability [29] [%] | cell viability [30] [%] | cell viability [31] [%] | cell viability [32] [%] | cell viability [33] [%]
1 | COc1c(C)c2c(c(O)c1C/C=C(\C)CCC(=O)O)C(=O)OC2 | 108 | 107 | 111 | 109 | 113 | 109 | 103 | 99.1 | 90.5 | 50.2 | 38.2 | 108 | 110 | 106 | 104 | 112 | 104 | 104 | 85 | 60.9 | 36.7 | 23 | 103 | 97.8 | 95.3 | 100 | 104 | 97.6 | 103 | 82 | 64 | 39.7 | 28.7
2 | CC(C)c1cc(C(C)C)c(CC(=O)N[S+](=O)([O-])Oc2c(C(C)C)cccc2C(C)C)c(C(C)C)c1 | 103 | 106 | 103 | 106 | 103 | 104 | 104 | 103 | 101 | 97 | 89.7 | 105 | 102 | 104 | 96.8 | 102 | 96.9 | 109 | 96.8 | 102 | 97.6 | 76.9 | 99.5 | 108 | 105 | 105 | 110 | 101 | 98.3 | 90.1 | 99.1 | 89.2 | 87
3 | COC1=CC=C(C(=C1)OC(C)C)C/2=N/[C@@H]([C@@H](N2C(=O)N3CCNC(=O)C3)C4=CC=C(Cl)C=C4)C5=CC=C(Cl)C=C5 | 108 | 113 | 115 | 108 | 109 | 111 | 108 | 102 | 76 | 37.1 | 12.1 | 122 | 125 | 127 | 119 | 116 | 118 | 106 | 111 | 97.2 | 52 | 49.6 | 122 | 119 | 116 | 117 | 125 | 113 | 112 | 110 | 88.3 | 41.5 | 27.8
4 | COc1ccc2c(c1)[C@]13CCCCC1C(C2)N(C)CC3 (stereo partly drawn) | 107 | 118 | 114 | 116 | 116 | 122 | 124 | 126 | 113 | 127 | 117 | 111 | 127 | 119 | 124 | 128 | 129 | 134 | 118 | 133 | 128 | 107 | 106 | 112 | 119 | 120 | 121 | 117 | 126 | 122 | 119 | 122 | 20.9
5 | COC1=C(OCCCN2CCOCC2)C=CC\3=C1/N=C(/NC(=O)C4=CN=C(N)N=C4)N5CC/N=C35 | 110 | 97.6 | 99.5 | 100 | 96 | 85.8 | 78.2 | 73.7 | 70.1 | 60.4 | 60.8 | 87.2 | 95.4 | 90.2 | 91.2 | 86.9 | 74.7 | 62.5 | 56.8 | 56.3 | 47.1 | 42 | 87.8 | 95.3 | 98.3 | 99.1 | 87.3 | 82.5 | 67.4 | 62.6 | 58.7 | 49.1 | 45.8
6 | COc1cc(C(=O)N2CC[C@@H](O)[C@@H](N)C2)cc2nc(-c3cc4ccccc4n3CC3CC3)n(C)c12 | 117 | 116 | 123 | 121 | 121 | 44.3 | 31 | 27.5 | 29 | 23.8 | 18.6 | 119 | 127 | 123 | 122 | 137 | 117 | 111 | 33.4 | 25.9 | 21.5 | 11.2 |  |  |  |  |  |  |  |  |  |  | 
7 | Cc1ccnc2c1NC(=O)c1cccnc1N2C1CC1 | 97.4 | 113 | 112 | 106 | 112 | 115 | 115 | 116 | 105 | 106 | 109 | 98.3 | 109 | 117 | 108 | 110 | 116 | 113 | 115 | 102 | 95.2 | 96.5 | 93.5 | 106 | 99.9 | 110 | 108 | 106 | 104 | 111 | 97.1 | 98.8 | 96.8
8 | NC(=O)c1ccc(N(C(N)=O)c2c(F)cccc2F)nc1-c1ccc(F)cc1F | 101 | 101 | 105 | 101 | 107 | 102 | 106 | 101 | 108 | 95.3 | 104 | 101 | 97.1 | 100 | 98.7 | 108 | 94.7 | 109 | 95.6 | 98.5 | 88.7 | 96.3 | 94.9 | 96.1 | 99 | 102 | 100 | 92.1 | 91 | 92.7 | 91.2 | 87.5 | 88.6
